Tests used:
Format in all cases: in vivo
[1] = tested on: rice (Oryza sativa); experiment: Test C flooded paddy test: rice; conditions: Oryza sativa, scale 0 to 100 (0 no effect, 100 complete control), read-out: Plant response rating, Rice
How it was run: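 2-leaf stage plants; pots flooded 3 cm above soil; compound applied into paddy water, depth maintained. Greenhouse 13–15 d. Visual rating vs controls, 0–100 (0 = no effect, 100 = complete control); dash = no result.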

[2] = tested on: goosegrass (Eleusine indica); experiment: Test C pre-/postemergence: goosegrass
How it was run: (§1)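 Visual injury scored 0–100 (100 = complete control) against untreated controls after 13–15 greenhouse days. Surfactant-containing solvent formulations applied either to soil after sowing (loam/sand) or over 1- to 4-leaf plants, 2–18 cm tall.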

[3] = tested on: Russian thistle (Salsola iberica); experiment: Test D pre-/postemergence: Russian thistle
How it was run: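 Applied as a non-phytotoxic solvent formulation with surfactant, compounds were tested preemergence in silt loam and postemergence on seedlings 2 to 18 cm high in peat-vermiculite medium. Evaluation was visual, 0 meaning no effect and 100 complete control, at 14 to 21 days.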

[4] = tested on: windgrass (Apera spica-venti); experiment: Test C postemergence: windgrass
How it was run: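 Response values are visual ratings, 0 (no effect) to 100 (complete control), made by comparison with untreated controls 13 to 15 days after postemergence treatment of greenhouse-grown potted plants that were 2 to 18 cm high at spraying.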

[5] = tested on: wheat, spring (spring wheat, Triticum aestivum); experiment: Test D pre-/postemergence: wheat, spring
Excerpt: (§2) Seeds of plant species selected from bluegrass (annual bluegrass, Poa annua), blackgrass (Alopecurus myosuroides), canarygrass (Phalaris minor), chickweed (common chickweed, Stellaria media), galium (catchweed bedstraw, Galium aparine), bromegrass, downy (downy bromegrass, Bromus tectorum), field poppy (Papaver rhoeas), field violet (Viola arvensis), foxtail, green (green foxtail, Setaria viridis), deadnettle (henbit deadnettle, Lamium amplexicaule), ryegrass, Italian (Italian ryegrass, Lolium multiflorum), kochia (Kochia scoparia), lambsquarters (Chenopodium album), oilseed rape (Brassica napus), pigweed (Amaranthus retroflexus), Russian thistle (Salsola iberica), chamomile (scentless chamomile, Matricaria inodora), speedwell (bird's-eye speedwell, Veronica persica), barley, spring (spring barley, Hordeum vulgare), wheat, spring (spring wheat, Triticum aestivum), buckwheat, wild (wild buckwheat, Polygonum convolvulus), mustard, wild (wild mustard, Sinapis arvensis), oat, wild (wild oat, Avena fatua), radish, wild (wild radish, Raphanus raphanistrum), windgrass (Apera spica-venti), barley, winter (winter barley, Hordeum vulgare), and wheat, winter (winter wheat, Triticum aestivum) were planted into a silt loam soil and treated preemergence with test chemicals formulated in a non-phytotoxic solvent mixture which included a surfactant. At the same time, these same crop and weed species were planted in pots containing the planting medium comprising spaghnum peat moss, vermiculite, wetting agent and starter nutrients and treated with postemergence applications of the test chemicals formulated in the same manner. Plants ranged in height from 2 to 18 cm (1- to 4-leaf stage).
(§3) Treated plants and controls were maintained in a controlled growth environment for 14 to 21 days after which time all species were compared to controls and visually evaluated. Plant response ratings, summarized in Table D, are based on a scale of 0 to 100 where 0 is no effect and 100 is complete control. A dash (-) response means no test result.

[6] = tested on: speedwell (bird's-eye speedwell, Veronica persica); experiment: Test D pre-/postemergence: speedwell; conditions: Postemergence
Excerpt: as §2, §3

[7] = tested on: surinam grass (Brachiaria decumbens); experiment: Test C pre-/postemergence: surinam grass
How it was run: as §1

[8] = tested on: barley, winter (winter barley, Hordeum vulgare); experiment: Test D pre-/postemergence: barley, winter
Excerpt: as §2, §3

[9] = Postemergence, 31 g ai/ha, scale 0 to 100 (0 no effect, 100 complete control)
[10] = Postemergence, 62 g ai/ha, scale 0 to 100 (0 no effect, 100 complete control)
[11] = Postemergence, 125 g ai/ha, scale 0 to 100, 0 no effect, 100 complete control
[12] = Postemergence, 250 g ai/ha, scale 0 to 100
[13] = Preemergence, 31 g ai/ha, scale of 0 to 100, 0 is no effect, 100 is complete control
[14] = Preemergence, 62 g ai/ha, scale of 0 to 100, 0 is no effect, 100 is complete control
[15] = Preemergence, 125 g ai/ha, scale 0 to 100, 0 no effect, 100 complete control
[16] = Preemergence, 250 g ai/ha, scale 0 to 100, 0 no effect, 100 complete control
[17] = Postemergence, 250 g ai/ha, scale 0 to 100 (0 no effect, 100 complete control)
[18] = Postemergence, 16 g ai/ha, scale 0 to 100
[19] = Preemergence, 16 g ai/ha, scale 0 to 100 (0 no effect, 100 complete control)
[20] = Preemergence, 31 g ai/ha, scale 0 to 100 (0 no effect, 100 complete control)
[21] = Preemergence, 62 g ai/ha, scale 0 to 100
[22] = Preemergence, 125 g ai/ha, scale 0 to 100
[23] = Preemergence, 250 g ai/ha, scale 0 to 100
[24] = 31 g ai/ha, scale 0 to 100 (0 no effect, 100 complete control)
[25] = 62 g ai/ha, scale 0 to 100 (0 no effect, 100 complete control)
[26] = 125 g ai/ha, scale 0 to 100, 0 no effect, 100 complete control

## Cc1nn(-c2ccc(F)cc2)nc1Oc1ccnc(C(F)(F)F)c1 [Compound 129, 4-[[2-(4-fluorophenyl)-5-methyl-2H-1,2,3-triazol-4-yl]oxy]-2-(trifluoromethyl)pyridine]
[1]; Flood (flooded paddy test), 125 g ai/ha, visual rating after 13 to 15 days
  plant injury at 125 g/ha: 40%
[1]; Flood (flooded paddy test), 250 g ai/ha, visual rating after 13 to 15 days
  plant injury at 250 g/ha: 50%
[1]; Flood, 31 g ai/ha
  plant injury at 31 g/ha: 20%
[1]; Flood, 62 g ai/ha
  plant injury at 62 g/ha: 30%
[2]; [9]
  Plant response rating, Goosegrass: 15
[2]; [10]
  Plant response rating, Goosegrass: 25
[2]; [11]
  Plant response rating, Goosegrass: 30
[2]; [12]
  Plant response rating, Goosegrass: 55
[2]; [13]
  Plant response rating, Goosegrass: 98
[2]; [14]
  Plant response rating, Goosegrass: 98
[2]; [15]
  Plant response rating, Goosegrass: 98
[2]; [16]
  Plant response rating, Goosegrass: 98
[3]; [9]
  Plant response rating: Russian Thistle: 98
[3]; [10]
  Plant response rating: Russian Thistle: 100
[3]; [11]
  Plant response rating: Russian Thistle: 100
[3]; [17]
  Plant response rating: Russian Thistle: 100
[3]; [18]
  Plant response rating, Russian Thistle: 98
[3]; [19]
  Plant response rating, Russian Thistle: 80
[3]; [20]
  Plant response rating, Russian Thistle: 100
[3]; [21]
  Plant response rating, Russian Thistle: 100
[3]; [22]
  Plant response rating, Russian Thistle: 100
[3]; [23]
  Plant response rating, Russian Thistle: 100
[4]; [24]
  Plant response rating, Windgrass: 60
[4]; [25]
  Plant response rating, Windgrass: 80
[4]; [26]
  Plant response rating, Windgrass: 85
[4]; 250 g ai/ha, scale 0 to 100
  Plant response rating, Windgrass: 100
[5]; [9]
  Plant response rating: Wheat, Spring: 10
[5]; [10]
  Plant response rating: Wheat, Spring: 10
[5]; [11]
  Plant response rating: Wheat, Spring: 15
[5]; [17]
  Plant response rating: Wheat, Spring: 20
[5]; [18]
  Plant response rating, Wheat, Spring: 5
[5]; [19]
  Plant response rating, Wheat, Spring: 0
[5]; [20]
  Plant response rating, Wheat, Spring: 0
[5]; [21]
  Plant response rating, Wheat, Spring: 0
[5]; [22]
  Plant response rating, Wheat, Spring: 5
[5]; [23]
  Plant response rating, Wheat, Spring: 15
[6]; [24]
  Plant response rating: Speedwell: 100
[6]; [25]
  Plant response rating: Speedwell: 100
[6]; [26]
  Plant response rating: Speedwell: 100
[6]; 250 g ai/ha, scale 0 to 100 (0 no effect, 100 complete control)
  Plant response rating: Speedwell: 100
[6]; 16 g ai/ha, scale 0 to 100
  Plant response rating, Speedwell: 100
[7]; [9]
  Plant response rating, Surinam Grass: 45
[7]; [10]
  Plant response rating, Surinam Grass: 45
[7]; [11]
  Plant response rating, Surinam Grass: 50
[7]; [12]
  Plant response rating, Surinam Grass: 60
[7]; [13]
  Plant response rating, Surinam Grass: 95
[7]; [14]
  Plant response rating, Surinam Grass: 95
[7]; [15]
  Plant response rating, Surinam Grass: 98
[7]; [16]
  Plant response rating, Surinam Grass: 98
[8]; [9]
  Plant response rating: Barley, Winter: 5
[8]; [10]
  Plant response rating: Barley, Winter: 10
[8]; [11]
  Plant response rating: Barley, Winter: 15
[8]; [17]
  Plant response rating: Barley, Winter: 30
[8]; [18]
  Plant response rating, Barley, Winter: 5
[8]; [19]
  Plant response rating, Barley, Winter: 0
[8]; [20]
  Plant response rating, Barley, Winter: 0
[8]; [21]
  Plant response rating, Barley, Winter: 0
[8]; [22]
  Plant response rating, Barley, Winter: 10
[8]; [23]
  Plant response rating, Barley, Winter: 15
